Data from patent US12558324B2, “Application of R-ketamine and salt thereof as pharmaceuticals” (National University Corporation Chiba University, priority 2013, dated 2026).

Legend:
Control C57/B6 mice [1] = assay: Locomotion-enhancing effect in control mice (side effect); assay type: in vivo; conditions: for locomotion (count/10 min) after injection: vs saline
Experimental: An effect of ketamine on the locomotion of mice was tested using SCANET MV-40 ([…] Co., Ltd., Toyama, Japan). Specifically, the locomotion was measured for a total of 180 minutes, i.e., 60 minutes before injection to 120 minutes after injection, and calculated as a locomotion per 10 minutes.

[2] = tested on: social defeat stress mice; assay: Tail suspension test (TST) in social defeat stress mice; conditions: for immobility time in the TST: 10 mg/kg i.p. single injection, vs saline; for antidepressant effects compared to S(+)-ketamine, TST: 10 mg/kg i.p.
Experimental: (§1) The TST was performed as described below. […] The FST was performed as described below. […] The cages were cleaned between testing session.

[3] = tested on: mice exposed neonatally to DEX; assay: Tail suspension test (TST) in DEX-treated mice; conditions: for immobility time in the TST: DEX-treated juvenile mice, 10 mg/kg i.p. single injection, vs saline
Experimental: (§2) On the final day of this period, the females were placed in isolation and checked daily around the expected delivery day. The day of birth was defined as day 0. The mice were injected intraperitoneally with DEX (Wako Pure Chemical Industries, Ltd., Tokyo, Japan) dissolved in saline on day 1, day 2, and day 3 at doses of 0.5 mg/kg body weight, 0.3 mg/kg body weight, and 0.1 mg/kg body weight, respectively. In addition, normal controls were injected with equal volumes (10 ml/kg) of saline.
as §1

healthy volunteers = conditions: Non Patent Literature 13, cited from earlier work; for cerebral metabolic rates of glucose (CMRglu), PET: intravenous infusion of 15 mg for 5 min, then 0.014 to 0.02 mg/kg/min for 53 min (S), equimolar doses (R)
Control C57/B6 mice [4] = assay: Prepulse inhibition test in control mice (side effect); conditions: 5, 10, or 20 mg/kg, prepulses 69, 73, 77, 81 dB before 110-dB pulse, vs saline
Experimental: PP69, PP73, PP77, and PP81 mean that stimuli at 69, 73, 77, and 81 dB for more than 20 milliseconds were presented 100 milliseconds before a 110-dB pulse, respectively. Data analysis was performed by Wilks Lambda, which is multivariate analysis of variance.
The prepulse inhibition test was performed using a startle response system (SR-LAB, SanDiego Instruments, San Diego, CA, United States).

Control C57/B6 mice [5] = assay: Conditioned place preference test in control mice (dependence); conditions: injected on day 4, 6, 8, evaluation on day 11, vs saline
Experimental: 15-minute habituation was performed for 3 days. Then, 30-minute conditioning was performed on day 4 to day 10, and a behavioral evaluation test was performed on day 11. Saline was injected on day 5, day 7, and day 9. […] In each of the groups, the injection was performed three times, i.e., on day 4, day 6, and day 8. Saline means a group injected with saline. In the group, the injection was performed three times, i.e., on day 5, day 7, and day 9.
The place preference test was performed using a conditioned place preference test apparatus (BrainSienceIdea Co., Ltd., Osaka, Japan).

[6] = tested on: mice exposed neonatally to DEX; assay: Forced swimming test (FST) in DEX-treated mice; conditions: for immobility time in the FST: DEX-treated juvenile mice, 10 mg/kg i.p. single injection, vs saline
Experimental: as §2, §1

[7] = known property of both isomers; cited from earlier work
[8] = tested on: social defeat stress mice; assay: Forced swimming test (FST) in social defeat stress mice; conditions: for immobility time in the FST: 10 mg/kg i.p. single injection, vs saline; for antidepressant effects compared to S(+)-ketamine, FST: 10 mg/kg i.p.
Experimental: as §1

[9] = tested on: social defeat stress mice; assay: 1% sucrose preference test (SPT) in social defeat stress mice; conditions: for sucrose consumption preference in the SPT: 10 mg/kg i.p. single injection, vs saline
Experimental: as §1

[10] = tested on: treatment-resistant obsessive-compulsive disorder and treatment-resistant posttraumatic stress disorder; conditions: treatment-resistant patients; Non Patent Literatures 6 to 8; cited from earlier work
[11] = tested on: treatment-resistant patients with MDD; conditions: cited from earlier work; for effective oral dose in patients with depression: Non Patent Literatures 15 and 16
[12] = Non Patent Literature 12; cited from earlier work
[13] = Non Patent Literature 12; cited from earlier work; remark: listed apart in the source

## CN[C@@]1(c2ccccc2Cl)CCCCC1=O.Cl [R(−)-ketamine, R(−)-ketamine hydrochloride]
Control C57/B6 mice [1]; 5, 10, or 20 mg/kg, up to 120 minutes after injection
  locomotion (count/10 min) after injection: did not affect the locomotion
[2]; 2 days after injection
  immobility time in the TST: markedly reduced the immobility time
  antidepressant effects compared to S(+)-ketamine, TST: significant high antidepressant effects as compared to those of S(+)-ketamine
[2]; 7 days after injection
  immobility time in the TST: significantly reduced the immobility time
  antidepressant effects compared to S(+)-ketamine, TST: significantly high antidepressant effects as compared to S(+)-ketamine
[3]; 27 hours after injection
  immobility time in the TST: markedly reduced the immobility time
[3]; 7 days after injection
  immobility time in the TST: significantly reduced the immobility time
[3]; DEX-treated mice, 10 mg/kg i.p., 27 hours after injection, no significant difference
  antidepressant effects compared to S(+)-ketamine, TST: slightly high antidepressant effects as compared to those of S(+)-ketamine
Healthy volunteers; doses equimolar to psychotomimetic doses of S(+)-ketamine
  psychotic symptoms in PET study: did not produce psychotic symptoms
Healthy volunteers
  cerebral metabolic rates of glucose (CMRglu), PET: tended to decrease CMRglu across brain regions
Control C57/B6 mice [4]
  prepulse inhibition: did not disrupt prepulse inhibition
Control C57/B6 mice [5]; 5, 10, or 20 mg/kg
  conditioned place preference test score (CPP score): did not increase the CPP score
[6]; 29 hours after injection
  immobility time in the FST: markedly reduced the immobility time
[6]; 7 days after injection
  immobility time in the FST: significantly reduced the immobility time
[6]; DEX-treated mice, 10 mg/kg i.p., 29 hours after injection, no significant difference
  antidepressant effects compared to S(+)-ketamine, FST: slightly high antidepressant effects as compared to those of S(+)-ketamine
[6]; DEX-treated mice, 10 mg/kg i.p., 7 days after injection
  difference between R(−)-ketamine and S(+)-ketamine, FST immobility time: statistically significant
[7]
  in vivo clearance: rapid in vivo clearance
[8]; 2 days after injection
  immobility time in the FST: markedly reduced the immobility time
  antidepressant effects compared to S(+)-ketamine, FST: significant high antidepressant effects as compared to those of S(+)-ketamine
[8]; 7 days after injection
  immobility time in the FST: significantly reduced the immobility time
  antidepressant effects compared to S(+)-ketamine, FST: significantly high antidepressant effects as compared to S(+)-ketamine
[9]; 1 day after injection
  sucrose consumption preference in the SPT: the sucrose consumption preference significantly increased
[9]; 6 days after injection
  sucrose consumption preference in the SPT: significantly restored the sucrose consumption preference
[9]; 10 mg/kg i.p., 1 day after injection
  antidepressant effects compared to S(+)-ketamine, SPT: more potent than those of S(+)-ketamine
[9]; 10 mg/kg i.p., 6 days after injection
  difference between R(−)-ketamine and S(+)-ketamine, SPT: statistically significant

## CNC1(c2ccccc2Cl)CCCCC1=O.Cl (racemic) [RS(+/−)-ketamine, ketamine hydrochloride]
[10]
  effect in obsessive-compulsive disorder and PTSD: effective
[11]; Non Patent Literature 9
  effect on suicide ideation: effect of inhibiting suicide ideation
[11]; effects may last, Non Patent Literatures 3, 4, and 11
  duration of clinical antidepressant effects (other reports): ≥ 2 weeks
[11]; intranasal, treatment-resistant patients with MDD, Patent Literature 1 and Non Patent Literature 17
  antidepressant effect of intranasal administration: showed antidepressant effect
[11]
  effective oral dose in patients with depression: 0.5 mg/kg
[11]; starting from several hours after single administration
  duration of clinical antidepressant effects: 1 to 2 days
[11]; treatment-resistant patients with MDD and depressive symptoms of treatment-resistant bipolar disorder, Non Patent Literatures 3 to 5
  antidepressant effects in patients: rapid and robust antidepressant effects
Control C57/B6 mice [5]; 10 mg/kg
  conditioned place preference test score (CPP score): significantly increased the CPP score

## CN[C@]1(c2ccccc2Cl)CCCCC1=O.Cl [S(+)-ketamine, S(+)-ketamine hydrochloride]
Control C57/B6 mice [1]; 10 mg/kg or 20 mg/kg
  time after injection at which enhanced locomotion returned to a normal value: 30 min
Control C57/B6 mice [1]; 10 mg/kg or 20 mg/kg, 10 minutes and 20 minutes after the injection
  locomotion (count/10 min) after injection: significant increase in locomotion
[2]; 2 days after injection
  immobility time in the TST: markedly reduced the immobility time
[2]; 7 days after injection
  immobility time in the TST: significantly reduced the immobility time
[3]; 27 hours after injection
  immobility time in the TST: markedly reduced the immobility time
[3]; 7 days after injection
  immobility time in the TST: did not reduce the immobility time
[11]; 0.25 mg/kg, i.v., treatment-resistant patients with MDD, case report, Non Patent Literature 14
  antidepressant effects compared to RS(+/−)-ketamine (0.5 mg/kg, i.v.): weaker than those of RS(+/−)-ketamine
[11]
  effective oral dose in patients with depression: 1.25 mg/kg
Healthy volunteers
  cerebral metabolic rates of glucose (CMRglu), PET: increased cerebral metabolic rates of glucose
Control C57/B6 mice [4]
  prepulse inhibition: disrupted prepulse inhibition in a dose-dependent manner
Control C57/B6 mice [5]; 5, 10, or 20 mg/kg
  conditioned place preference test score (CPP score): increased the CPP score in a dose-dependent manner
[6]; 29 hours after injection
  immobility time in the FST: markedly reduced the immobility time
[6]; 7 days after injection
  immobility time in the FST: did not reduce the immobility time
[12]
  psychotomimetic side effects compared to R-isomer: greater psychotomimetic side effects than R-isomer
[13]
  anesthetic effect as compared to R-isomer: 3- to 4 fold
[8]; 2 days after injection
  immobility time in the FST: markedly reduced the immobility time
[8]; 7 days after injection
  immobility time in the FST: significantly reduced the immobility time
[9]; 1 day after injection
  sucrose consumption preference in the SPT: the sucrose consumption preference significantly increased
[9]; 6 days after injection
  sucrose consumption preference in the SPT: significantly restored the sucrose consumption preference
